# US20230372375A1, “SGLT-2 INHIBITOR SARCOSINE CO-CRYSTAL, PREPARATION METHOD THEREFOR AND USE THEREOF” (Beijing Creatron Institute of Pharmaceutical Research Co. …, priority 2020, published 2023)
# Where two headings read alike, the source gives them in different places.
# Legend:
# [1] = Influencing factors test (physical and chemical stability) of canagliflozin crystal forms, Test Example 2; type: physicochemical; design: Impurity RRT0.73 content / Impurity RRT0.93 content / Impurity RRT1.12 content / Impurity RRT1.17 content / Impurity RRT2.25 content / Impurity RRT2.28 content / Impurity RRT0.57 content / Impurity RRT0.67 content: unit not given here
# Procedure: The canagliflozin-sarcosine cocrystal and canagliflozin hemihydrate (original crystal form) were tested for influencing factors.
# [2] = Directly exposed at 60° C. for 10 days
# [3] = Directly exposed at 5000 LX for 10 days
# [4] = Directly exposed at RH75% for 10 days
# [5] = light irradiation of 5000LX for 10 days
smiles,measurement,setting,value
CNCC(=O)O.Cc1ccc([C@@H]2O[C@H](CO)[C@@H](O)[C@H](O)[C@H]2O)cc1Cc1ccc(-c2ccc(F)cc2)s1 [canagliflozin-sarcosine cocrystal],Impurity RRT0.57 content,[1]; 0 day,0.01
same,Impurity RRT0.93 content,[1]; 0 day,0.01
same,Impurity RRT2.25 content,[1]; 0 day,0.01
same,Number of impurities,[1]; 0 day,3
same,Property (appearance),[1]; 0 day,White
same,Total content of impurities,[1]; 0 day,0.03%
same,Impurity RRT0.57 content,[1]; [2],0.01
same,Impurity RRT0.93 content,[1]; [2],0.01
same,Impurity RRT2.25 content,[1]; [2],0.01
same,Number of impurities,[1]; [2],3
same,Property (appearance),[1]; [2],White
same,Total content of impurities,[1]; [2],0.03%
same,Impurity RRT0.57 content,[1]; [3],0.05
same,Impurity RRT0.73 content,[1]; [3],0.01
same,Impurity RRT0.93 content,[1]; [3],0.01
same,Impurity RRT1.12 content,[1]; [3],0.01
same,Impurity RRT2.25 content,[1]; [3],0.01
same,Number of impurities,[1]; [3],5
same,Property (appearance),[1]; [3],White
same,Total content of impurities,[1]; [3],0.09%
same,Impurity RRT0.57 content,[1]; [4],0.01
same,Impurity RRT0.93 content,[1]; [4],0.01
same,Impurity RRT2.25 content,[1]; [4],0.01
same,Number of impurities,[1]; [4],3
same,Property (appearance),[1]; [4],White
same,Total content of impurities,[1]; [4],0.03%
same,Crystal form stability (XRPD),[1]; each influencing factor for 10 days vs 0 day,did not change
same,"Number of impurities detected and total content of impurities detected, change",[1]; high temperature 60° C. and high humidity of RH75% for 10 days vs 0 day,did not show an increasing trend
same,Weight change,[1]; high temperature of 60° C. and high humidity of RH75%,basically remained unchanged
same,Maximum detected amount of new impurities,[1]; [5],about 0.05%
same,New impurities detected (number),[1]; [5],2
same,Solubility,"Acetate buffer of pH 4.0, 25° C., 12 h",32.65 mg/mL
same,Solubility,"Acetate buffer of pH 4.0, 25° C., 24 h",32.66 mg/mL
same,Solubility,"Artificial gastric juice, 25° C., 12 h",31.16 mg/mL
same,Solubility,"Artificial gastric juice, 25° C., 24 h",32.08 mg/mL
same,Solubility,"Artificial intestinal juice, 25° C., 12 h",30.35 mg/mL
same,Solubility,"Artificial intestinal juice, 25° C., 24 h",30.89 mg/mL
same,Solubility,"Citrate buffer of pH 3.0, 25° C., 12 h",33.87 mg/mL
same,Solubility,"Citrate buffer of pH 3.0, 25° C., 24 h",34.23 mg/mL
same,Solubility,"Hydrochloric acid of pH 1.0, 25° C., 12 h",34.92 mg/mL
same,Solubility,"Hydrochloric acid of pH 1.0, 25° C., 24 h",35.12 mg/mL
same,Solubility,"Phosphate buffer of pH 6.8, 25° C., 12 h",31.28 mg/mL
same,Solubility,"Phosphate buffer of pH 6.8, 25° C., 24 h",33.34 mg/mL
same,Solubility,"Water, 25° C., 12 h",35.12 mg/mL
same,Solubility,"Water, 25° C., 24 h",34.56 mg/mL
same,Solubility in different pH media,"summary over media, 25° C.",about 30 μg/ml
same,Solubility in different pH media (words),"summary over media, 25° C.",almost insoluble
